Drawing on the supplement of paper PMC10307832, this text covers relative viability for one cell line.

What all share (test): relative viability (nuclei count vs DMSO), 5 days (fraction); higher = more cells survive
Compound in assay [1]: COCC[n+]1c2c(n(Cc3cnccn3)c1C)C(=O)c1ccccc1C2=O [YM155] + Nc1nc2[nH]cc(CCc3ccc(C(=O)N[C@@H](CCC(=O)O)C(=O)O)cc3)c2c(=O)[nH]1 [Pemetrexed] (partner 0.2 µM)
The essentials: (§1)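 Nuclei were stained with Hoechst during a one-step fixation (final 0.05% Triton X-100, 1% formaldehyde, 1 ug/ml Hoechst) carried out 5 days after dosing, then counted on 4× images. The cells, lung cancer lines in 1536-well plates, had been dosed by pin tool the day after seeding with one drug alone or a fixed anchor-drug dose plus five library-drug doses (not always all listed) in √10 steps. Relative viability is the nuclei count in treated wells divided by that in vehicle wells, and each value is the median of duplicate plates.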

Compound in assay [2]: CC(C)(C)c1cc(NC(=O)Nc2ccc(-c3cn4c(n3)sc3cc(OCCN5CCOCC5)ccc34)cc2)no1 [Quizartinib] + Cc1nc(Nc2ncc(C(=O)Nc3c(C)cccc3Cl)s2)cc(N2CCN(CCO)CC2)n1 [Dasatinib] (partner 0.075 µM)
The essentials:
as §1

Compound in assay [3]: COCC[n+]1c2c(n(Cc3cnccn3)c1C)C(=O)c1ccccc1C2=O [YM155] + Cc1cc(Nc2cc(N3CCN(C)CC3)nc(Sc3ccc(NC(=O)C4CC4)cc3)n2)n[nH]1 [Tozasertib] (partner 0.1 µM)
The essentials: as §1

Compound in assay [4]: COCC[n+]1c2c(n(Cc3cnccn3)c1C)C(=O)c1ccccc1C2=O [YM155] + CC(C)C[C@H](NC(=O)[C@H](Cc1ccccc1)NC(=O)c1cnccn1)B(O)O [Bortezomib] (partner 0.002 µM)
The essentials:
as §1

As to UMC-11, the relative viability was found to be 0.817 in assay [1] (first compound 0.002 µM); 0.823 in assay [1] (first compound 0.006325 µM); 0.878 in assay [1] (first compound 0.02 µM); 0.802 in assay [1] (first compound 0.06325 µM); 0.386 in assay [2] (first compound 0.003162 µM); 0.487 in assay [2] (first compound 0.01 µM). Further, the relative viability in assay [2] (first compound 0.03162 µM) was 0.434; in assay [2] (first compound 0.1 µM), 0.454; in assay [3] (first compound 0.002 µM) it was 0.209; in assay [3] (first compound 0.006325 µM), 0.199; in assay [3] (first compound 0.02 µM) it was 0.213; in assay [3] (first compound 0.06325 µM), 0.212. In addition, the relative viability in assay [4] (first compound 0.002 µM) amounted to 0.692; in assay [4] (first compound 0.006325 µM) it was 0.557; in assay [4] (first compound 0.02 µM), 0.719; in assay [4] (first compound 0.06325 µM), 0.667.
